# Measurements: patent publication US4447439A, “2-Cyclic amino-2-(1,2-benzisoxazol-3-yl)acetic acid ester derivatives, process for the preparation thereof and composition containing the same” (priority 1981, dated 1984)
# Where a name gives a salt, the structure may show the parent alone. Read-outs that look alike come from different tables or passages of the source.
# Tests used:
# [1] = system: spontaneous gastric motility; assay: Inhibitory effect on spontaneous gastric motility (Anti-SGM); set-up: species or system male Wistar strain rats; settings: Rattus norvegicus; conscious rats, fasted 18 hours, oral; read-out: ID50 Anti-SGM (antispasmodic activity in vivo)
# Method: (2) Inhibitory effect on spontaneous gastric motility (Anti-SGM)
# (§1) This effect was examined using male Wistar strain rats, weighing about 250 g, with chronically implanted strain gauge force transducer as mentioned in the experiment (1). The rats were usually allowed to stand for 3-5 days for recovery from the surgery and fasted for 18 hours before experiment. Then, spontaneous gastric motility in conscious rats were recorded and the sum of amplitude of each contraction was calculated every 15 minutes. Inhibitory effect of test compound by oral administration was expressed as a percent inhibition of initial spontaneous motility.
# [2] = system: section of the ileum (contractile response induced by acetylcholine); assay: Inhibitor effect on contractile response induced by acetylcholine (Anti-ACh); assay type: cell-based, male Hartley strain guinea pig; settings: guinea pig ileum, acetylcholine 2×10^-8 g/ml, compound applied 2 minutes before; for IC50: Cavia porcellus, read-out: IC50 Anti-ACh (antispasmodic activity in vitro)
# Method: (2) Inhibitor effect on contractile response induced by acetylcholine (Anti-ACh)
# In the same manner as described in the above experiment (1), ileum preparation was prepared and mounted in Tyrode's solution. The response of the ileum to acetylcholine (2×10^-8 g/ml) were recorded isotonically. Test compounds were applied 2 minutes before adding the acetylcholine.
# (§2) In the experiments (1) and (2), each compound was tested in three different concentrations.
# Mydriatic activity = settings: rat, in vivo, po
# Text: (§3) This activity was examined according to the method of P. Pelewka [cf.
# [3] = system: section of the ileum (contractile response induced by transmural stimulation); assay: Inhibitory effect on contractile response induced by transmural stimulation (Anti-TMS); assay type: cell-based, male Hartley strain guinea pig; settings: guinea pig ileum, transmural stimulation 5 Hz, 20-30 V, compound applied 20 minutes before; for IC50: Cavia porcellus, read-out: IC50 Anti-TMS (antispasmodic activity in vitro)
# Method: (1) Inhibitory effect on contractile response induced by transmural stimulation (Anti-TMS)
# From male Hartley strain guinea pig, weighing 300-350 g, section of the ileum about 3 cm in length was prepared and mounted in Tyrode's solution kept at 35° C. and oxygenated with 95% O2 --5% CO2, and responses of the ileum were recorded isotonically with an initial tension of 1 g. The ileum was stimulated electrically by the method of W. D. M. Paton [cf. […] The electrode was made of platinum and the intraluminal electrode was used at a frequency of 5 Hz and at a voltage sufficient to give a maximal response (20-30 V). Test compounds were applied 20 minutes before the stimulation.
# as §2
# [4] = system: stomach (contractile response induced by carbachol); assay: Inhibitor effect on contractile response induced by carbachol (Anti-Car); set-up: species or system male Wistar strain rats; settings: Rattus norvegicus, iv; anesthetized rats, carbachol 10 μg/kg, i.v.; read-out: ID50 Anti-Car (antispasmodic activity in vivo)
# Method: (1) Inhibitor effect on contractile response induced by carbachol (Anti-Car)
# This effect was examined using the strain gauge force transducer as described by X. B. Pascaud et al. [cf. Am. […] The transducer was sutured on the serosa of the stomach in anesthetized male Wistar strain rats, weighing about 250 g. This transducer can record simultaneously contractions and tone variation of the muscle. The contractile response induced by carbachol (10 μg/kg, i.v.) was estimated before and after administration of test compound. Inhibitory effect of test compound was expressed as a percent inhibition of the response.
# [5] = Safety index (ED50 of mydriatic activity / ID50 of Anti-SGM); set-up: species or system male Wistar strain rats; settings: rat, in vivo, po
# Method: as §1, with “motility. ID50 value, i.e., the dose required for 50% inhibition of spontaneous motility, was determined from regression line calculated by the maximum percent inhibition at each dose level.” for “motility.”
# Acute lethal toxicity = assay: Acute lethal toxicity; set-up: species or system male and female Jcl:SD strain rats; settings: rat, in vivo, po, single oral, 7 days
# in vivo = settings: rat, po
# Text: as §3
Compound,IC50 [2] [µg/mL],IC50 [3] [µg/mL],also measured
"CN1[C@@H]2CC[C@H]1C[C@@H](OC(=O)C(CO)c1ccccc1)C2 (stereo partly shown) [Atropine sulfate, atropine sulfate, reference compound]",0.005,0.035,ED50 [1]: 1.7 mg/kg; ED50 (Mydriatic activity): 3.5 mg/kg; ED50 [4]: 0.0084 mg/kg
CCN1CCCC(OC(=O)C(c2noc3ccccc23)N2CCCCCC2)C1 (stereo not shown) [Example 3],0.042,0.11,
CN1CCCC(OC(=O)C(c2noc3ccccc23)N2CCCCCC2)C1 (stereo not shown) [Example 8],0.039,0.11,
"CN1CCC(OC(=O)C(c2noc3ccccc23)N2CCCCCC2)CC1 (stereo not shown) [Example 16, 1-methyl-4-piperidyl 2-hexamethyleneimino-2-(1,2-benzisoxazol-3-yl)acetate]",0.023,0.034,
"CC[N+]1(C)CCC(OC(=O)C(c2noc3ccccc23)N2CCCCCC2)CC1.[I-] (stereo not shown) [Example 17(i), 1-ethyl-1-methyl-4-[2-hexamethyleneimino-2-(1,2-benzisoxazol-3-yl)acetoxy]piperidinium iodide]",,0.14,"selectivity ratio ([5]; ED50 of mydriatic activity divided by ID50 of Anti-SGM, read-out: Safety index): > 114; ED50 [1]: 26.3 mg/kg; LD50 at 168 h (Acute lethal toxicity; female rats): 6320 mg/kg; LD50 at 168 h (Acute lethal toxicity; male rats): 5430 mg/kg; ED50 (Mydriatic activity): > 3000 mg/kg; ED50 [4]: 0.0187 mg/kg"
"C[N+]1(C)CCC(OC(=O)C(c2noc3ccccc23)N2CCCCCC2)CC1.[I-] (stereo not shown) [Example 20, 1,1-dimethyl-4-[2-hexamethyleneimino-2-(1,2-benzisoxazol-3-yl)acetoxy]piperidinium iodide]",0.02,0.12,
"C[N+]1(C)CCC(OC(=O)C(c2noc3ccccc23)N2CCCCC2)CC1.[I-] (stereo not shown) [Example 21, 1,1-Dimethyl-4-[2-piperidino-2-(1,2-benzisoxazol-3-yl)acetoxy]piperidinium iodide]",0.032,0.09,
CC[N+]1(C)CCCC(OC(=O)C(c2noc3ccccc23)N2CCCCCC2)C1 (stereo not shown) [Example 22],0.022,0.096,
CC1CCCN(C(C(=O)OC2CC[N+](C)(C)CC2)c2noc3ccccc23)C1 (stereo not shown) [Example 23],0.036,0.074,
C[N+]1(C)CCCC(OC(=O)C(c2noc3ccccc23)N2CCCCCC2)C1 (stereo not shown) [Example 24],0.036,0.1,
C[N+]1(C)CCC(OC(=O)C(c2noc3ccccc23)N2CCCCCCC2)CC1 (stereo not shown) [Example 27],0.014,0.088,
C[N+]1(C)CCC(OC(=O)C(c2noc3ccccc23)N2CCCCCC2)CC1 (stereo not shown) [Example 28],,,IC50 Anti-ACh (antispasmodic activity in vitro) [2]: 0.013 µg/mL; IC50 Anti-TMS (antispasmodic activity in vitro) [3]: 0.1 µg/mL
CC[N+]1(C)CCC(OC(=O)C(c2noc3ccccc23)N2CCCCCC2)CC1 (stereo not shown) [Example 30],0.064,0.18,
CC[N+]1(C)CCC(OC(=O)C(c2noc3ccccc23)N2CCCCCC2)CC1 (stereo not shown) [Example 31],,,IC50 Anti-ACh (antispasmodic activity in vitro) [2]: 0.055 µg/mL; IC50 Anti-TMS (antispasmodic activity in vitro) [3]: 0.12 µg/mL
"CCCC[N+]1(C)C2CC(OC(=O)C(CO)c3ccccc3)CC1C1OC12 (stereo not shown) [Scopolamine-N-butyl bromide, scopolamine-N-butyl bromide, reference compound]",0.089,0.44,selectivity ratio [5]: 2; ED50 [1]: 100 mg/kg; ED50 [4]: 0.0201 mg/kg; ED50 (in vivo): 227 mg/kg

# The next lines start with results.
IC50 [2] [µg/mL],IC50 [3] [µg/mL],Compound,also measured
0.032,0.18,CC[N+]1(C)CCC(OC(=O)C(c2noc3ccccc23)N2CCCC2)CC1 (stereo not shown) [Example 33],
0.033,,CC[N+]1(C)CCC(OC(=O)C(c2noc3ccccc23)N2CCCCC2)CC1 (stereo not shown) [Example 34],IC50 ([3]; 20 min): 0.044 µg/mL
0.029,0.11,C[N+]1(C)CCC(OC(=O)C(c2noc3ccccc23)N2CCCCC2)CC1 (stereo not shown) [Example 36],
0.072,0.24,CC1CCN(C(C(=O)OC2CC[N+](C)(C)CC2)c2noc3ccccc23)CC1 (stereo not shown) [Example 37],
0.024,,C[N+]1(C)CCC(OC(=O)C(c2noc3ccccc23)N2CCCCCC2)CC1 (stereo not shown) [Example 38],IC50 Anti-TMS (antispasmodic activity in vitro) [3]: 0.027 µg/mL
0.051,0.058,C[N+]1(C)CCC(OC(=O)C(c2noc3ccccc23)N2CCCC2)CC1 (stereo not shown) [Example 39],
0.078,0.34,C[N+]1(C)CCC(OC(=O)C(c2noc3ccc(Cl)cc23)N2CCCCCC2)CC1 (stereo not shown) [Example 42],
0.08,0.29,C[N+]1(C)CCC(OC(=O)C(c2noc3ccc(F)cc23)N2CCCCCC2)CC1 (stereo not shown) [Example 44],
